The values below come from patent US8471005B2 (Cephalon, Inc., priority 2008, dated 2013).

One assay addresses T1, ALK (Homo sapiens, UniProt Q9UM73).
T1 construct: host or cells: baculovirus expression system
Nature of the assay: ALK Kinase Assay (ELISA/TRF, PLC-γ substrate). The settings on record: read-out: ALK Potency. In kind it is biochemical. An outline of the steps:
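IC50 values derive from percent inhibition plotted against log10 compound concentration and fitted to a variable-slope sigmoidal equation. The underlying reaction used 30 ng/ml ALK acting on immobilized PLC-γ (10 μg/mL in TBS) at 37° C for 15 minutes, read with Eu-N1 PT66 antibody.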
A general note: ELISA stands for enzyme-linked immunosorbent assay.

Another assay concerns the target T2, JAK2 (Homo sapiens, UniProt O60674).
T2 construct: host or cells: baculovirus expression system
In words: Recombinant Human JAK2 Kinase Assay (TRF). In kind it is biochemical. Particulars: read-out: JAK2 Potency. The method in brief:
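Baculovirus-expressed JAK2 (15 ng/ml) phosphorylated a biotinylated 15-mer peptide captured on Neutravidin, in 20 mM HEPES pH 7.2, 0.2 μM ATP, 1 mM MnCl2, 0.1% BSA, 2.5% DMSO final, 20 min at room temperature. Phosphoproduct detected by time-resolved fluorescence with Eu-N1-labelled PY100 antibody.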

Setting [1] is: ALK kinase inhibition, 1 μM ATP.
Where [2] appears, read: JAK2 kinase inhibition, 0.2 μM ATP.

Structures are written as SMILES. Where two headings read alike, the source gives them in different places.

T2 sequence (O60674 whole entry): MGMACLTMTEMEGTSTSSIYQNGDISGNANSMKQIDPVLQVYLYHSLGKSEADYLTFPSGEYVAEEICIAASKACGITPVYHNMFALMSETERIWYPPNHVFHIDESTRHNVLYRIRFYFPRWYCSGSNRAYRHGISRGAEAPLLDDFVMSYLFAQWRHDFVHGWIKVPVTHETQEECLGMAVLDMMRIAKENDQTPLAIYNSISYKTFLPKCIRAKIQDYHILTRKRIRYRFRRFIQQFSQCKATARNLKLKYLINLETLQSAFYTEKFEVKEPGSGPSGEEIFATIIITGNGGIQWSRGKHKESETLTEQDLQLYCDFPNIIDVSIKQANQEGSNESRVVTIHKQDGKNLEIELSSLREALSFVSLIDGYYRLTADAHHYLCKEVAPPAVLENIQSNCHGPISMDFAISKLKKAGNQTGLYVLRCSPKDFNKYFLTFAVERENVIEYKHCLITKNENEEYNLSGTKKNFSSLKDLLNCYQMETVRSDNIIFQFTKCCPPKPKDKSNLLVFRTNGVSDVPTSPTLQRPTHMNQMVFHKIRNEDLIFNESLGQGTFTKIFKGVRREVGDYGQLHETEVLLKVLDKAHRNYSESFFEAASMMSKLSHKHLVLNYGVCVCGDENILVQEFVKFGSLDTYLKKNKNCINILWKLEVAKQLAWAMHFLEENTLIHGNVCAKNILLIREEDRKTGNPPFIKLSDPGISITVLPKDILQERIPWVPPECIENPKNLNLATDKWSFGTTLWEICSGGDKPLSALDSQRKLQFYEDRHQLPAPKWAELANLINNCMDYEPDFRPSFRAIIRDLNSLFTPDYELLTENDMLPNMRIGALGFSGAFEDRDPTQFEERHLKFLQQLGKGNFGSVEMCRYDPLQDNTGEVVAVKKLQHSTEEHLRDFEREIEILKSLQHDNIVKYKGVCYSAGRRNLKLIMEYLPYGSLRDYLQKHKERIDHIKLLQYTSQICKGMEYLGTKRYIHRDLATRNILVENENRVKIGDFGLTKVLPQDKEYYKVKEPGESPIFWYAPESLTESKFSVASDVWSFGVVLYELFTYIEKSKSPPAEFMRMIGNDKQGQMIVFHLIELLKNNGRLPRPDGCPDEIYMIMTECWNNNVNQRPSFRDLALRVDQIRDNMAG
T1 sequence (Q9UM73 19-1620): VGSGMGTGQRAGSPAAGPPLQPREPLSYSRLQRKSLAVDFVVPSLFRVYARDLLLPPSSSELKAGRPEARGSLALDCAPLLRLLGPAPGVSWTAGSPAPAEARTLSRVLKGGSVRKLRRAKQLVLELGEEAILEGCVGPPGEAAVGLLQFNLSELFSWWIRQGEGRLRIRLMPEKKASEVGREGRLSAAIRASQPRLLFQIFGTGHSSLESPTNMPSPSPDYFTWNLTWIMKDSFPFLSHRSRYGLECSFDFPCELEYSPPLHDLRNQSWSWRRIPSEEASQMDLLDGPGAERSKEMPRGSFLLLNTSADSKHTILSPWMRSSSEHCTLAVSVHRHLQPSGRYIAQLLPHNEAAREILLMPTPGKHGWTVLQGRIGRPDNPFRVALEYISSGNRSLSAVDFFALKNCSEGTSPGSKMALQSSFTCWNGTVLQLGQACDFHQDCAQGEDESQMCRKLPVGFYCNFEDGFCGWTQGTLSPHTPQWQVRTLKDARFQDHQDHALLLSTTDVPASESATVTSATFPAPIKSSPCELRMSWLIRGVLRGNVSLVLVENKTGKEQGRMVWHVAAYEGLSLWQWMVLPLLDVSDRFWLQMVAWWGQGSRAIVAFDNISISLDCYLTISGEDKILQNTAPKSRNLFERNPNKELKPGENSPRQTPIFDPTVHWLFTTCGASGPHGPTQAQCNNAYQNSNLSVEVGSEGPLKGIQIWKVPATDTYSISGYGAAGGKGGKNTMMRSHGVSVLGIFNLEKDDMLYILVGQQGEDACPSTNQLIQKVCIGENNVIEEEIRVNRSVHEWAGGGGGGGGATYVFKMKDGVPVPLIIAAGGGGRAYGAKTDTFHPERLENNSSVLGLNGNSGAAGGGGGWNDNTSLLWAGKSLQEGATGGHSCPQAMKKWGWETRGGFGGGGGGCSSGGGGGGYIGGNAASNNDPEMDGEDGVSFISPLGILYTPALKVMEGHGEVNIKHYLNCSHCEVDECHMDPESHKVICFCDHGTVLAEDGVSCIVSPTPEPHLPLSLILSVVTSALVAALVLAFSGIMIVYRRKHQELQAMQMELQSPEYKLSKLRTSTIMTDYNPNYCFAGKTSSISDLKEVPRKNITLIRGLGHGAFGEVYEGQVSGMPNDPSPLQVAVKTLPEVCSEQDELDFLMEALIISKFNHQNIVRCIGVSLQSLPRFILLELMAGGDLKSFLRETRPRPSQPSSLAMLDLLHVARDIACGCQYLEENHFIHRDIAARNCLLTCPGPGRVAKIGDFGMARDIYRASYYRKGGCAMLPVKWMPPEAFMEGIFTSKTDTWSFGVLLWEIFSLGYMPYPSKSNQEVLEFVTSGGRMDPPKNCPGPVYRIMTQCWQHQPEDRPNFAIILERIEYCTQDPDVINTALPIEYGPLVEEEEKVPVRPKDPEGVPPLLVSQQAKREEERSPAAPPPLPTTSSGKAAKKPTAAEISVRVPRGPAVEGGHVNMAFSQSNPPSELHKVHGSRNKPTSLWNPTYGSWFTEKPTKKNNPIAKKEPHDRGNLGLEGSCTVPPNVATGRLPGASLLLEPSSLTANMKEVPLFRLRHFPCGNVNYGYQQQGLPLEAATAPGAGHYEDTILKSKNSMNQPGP

In the case of `COc1cccc(-c2ccc3cnc(Nc4ccc(N5CCN(C)CC5)cc4)nn23)c1` [Example 423, [7-(3-Methoxy-phenyl)-pyrrolo[2,1-f][1,2,4]triazin-2-yl]-[4-(4-methyl-piperazin-1-yl)-phenyl]-amine], the results for the IC50 at ALK (ALK Kinase Inhibition) and on JAK2 (JAK2 Kinase Inhibition) were 100 to 1000 nM and under 100 nM, respectively.

For `COc1ccccc1-c1c(C)c(C)c2cnc(Nc3ccc(N4CCOCC4)cc3)nn12` [Example 112, [7-(2-Methoxy-phenyl)-5,6-dimethyl-pyrrolo[2,1-f][1,2,4]triazin-2-yl]-(4-morpholin-4-yl-phenyl)-amine], the IC50 on ALK (ALK Kinase Inhibition) is 100 to 1000 nM; on JAK2 (JAK2 Kinase Inhibition), under 100 nM.

For the molecule `COc1cc([C@@]2(O)CCN(CCF)C[C@@H]2O)ccc1Nc1ncc2ccc(-c3ccccc3OC)n2n1` (racemic) [Example 833, (±)-(3S,4S)-1-(2-Fluoro-ethyl)-4-{3-methoxy-4-[7-(2-methoxy-phenyl)-pyrrolo[2,1-f][1,2,4]triazin-2-ylamino]-phenyl}-piperidine-3,4-diol], the IC50 at ALK (setting [1]) and on JAK2 (setting [2]) was under 100 nM throughout.

On to `COc1ccccc1-c1ccc2cnc(Nc3ccc4nc(CN5CCN(CCO)CC5)[nH]c4c3)nn12` [Example 1522, 2-(4-{6-[7-(2-Methoxy-phenyl)-pyrrolo[2,1-f][1,2,4]triazin-2-ylamino]-1H-benzimidazol-2-ylmethyl}-piperazin-1-yl)-ethanol], for which the results for the IC50 at ALK (ALK Kinase Inhibition) and at JAK2 (JAK2 Kinase Inhibition) were 100 to 1000 nM and under 100 nM, respectively.

Regarding `COc1cc(Nc2ncc3ccc(-c4cccc(S(C)(=O)=O)c4)n3n2)cc(OC)c1OC` [Example 185, [7-(3-Methanesulfonyl-phenyl)-pyrrolo[2,1-f][1,2,4]triazin-2-yl]-(3,4,5-trimethoxy-phenyl)-amine], the figures for the IC50 at ALK (ALK Kinase Inhibition) and on JAK2 (JAK2 Kinase Inhibition) were 100 to 1000 nM and under 100 nM, respectively.

Turning to `Cc1nn(C)cc1-c1ccc2cnc(Nc3ccc(N4CCN(C)CC4)cc3)nn12` [Example 1229, [7-(1,3-Dimethyl-1H-pyrazol-4-yl)-pyrrolo[2,1-f][1,2,4]triazin-2-yl]-[4-(4-methyl-piperazin-1-yl)-phenyl]-amine], the IC50 is 100 to 1000 nM on ALK (setting [1]) and under 100 nM on JAK2 (setting [2]).

On to `COc1cc(C2(O)CCN(C(=O)OC(C)(C)C)CC2)ccc1Nc1ncc2ccc(-c3ccccc3N(C)S(C)(=O)=O)n2n1` [Example 741, 4-Hydroxy-4-(4-{7-[2-(methanesulfonyl-methyl-amino)-phenyl]-pyrrolo[2,1-f][1,2,4]triazin-2-ylamino}-3-methoxy-phenyl)-piperidine-1-carboxylic acid tert-butyl ester], for which the IC50 on ALK (setting [1]) and on JAK2 (setting [2]) was 100 to 1000 nM each time.

Take `COc1cc(C2CCN(CC(C)(C)O)CC2)ccc1Nc1ncc2ccc(-c3ccccc3OC)n2n1` [Example 865, 1-(4-{3-Methoxy-4-[7-(2-methoxy-phenyl)-pyrrolo[2,1-f][1,2,4]triazin-2-ylamino]-phenyl}-piperidin-1-yl)-2-methyl-propan-2-ol]: the IC50 at ALK (setting [1]) is under 100 nM; on JAK2 (setting [2]) it was 100 to 1000 nM.

Take `COc1ccc(-c2ccc3cnc(Nc4cccc(C5CNCCN5)c4)nn23)cn1` (stereo not shown) [Example 1566, [7-(6-Methoxy-pyridin-3-yl)-pyrrolo[2,1-f][1,2,4]triazin-2-yl]-(3-piperazin-2-yl-phenyl)-amine]: the IC50 on ALK (ALK Kinase Inhibition) is 1000 to 10000 nM; on JAK2 (JAK2 Kinase Inhibition), under 100 nM.

Take `CC(C)(C)NS(=O)(=O)c1cccc(-c2ccc3cnc(Nc4ccc(C5CCC(N6CCOCC6)CC5)cc4)nn23)c1` (stereo not shown) [Example 565, N-tert-Butyl-3-{2-[4-(4-morpholin-4-yl-cyclohexyl)-phenylamino]-pyrrolo[2,1-f][1,2,4]triazin-7-yl}-benzenesulfonamide]: the figures for the IC50 at ALK (setting [1]) and at JAK2 (setting [2]) were 100 to 1000 nM and under 100 nM, respectively.

`c1cc(Nc2ncc3cccn3n2)cc(N2CCOCC2)c1` [Example 174, (3-Morpholin-4-yl-phenyl)-pyrrolo[2,1-f][1,2,4]triazin-2-yl-amine]: the IC50 at ALK (ALK Kinase Inhibition) was over 10000 nM; at JAK2 (JAK2 Kinase Inhibition), 100 to 1000 nM.

`COc1ccc(Nc2ncc3ccc(-c4cccnc4)n3n2)cc1N1CCOCC1` [Example 396, (4-Methoxy-3-morpholin-4-yl-phenyl)-(7-pyridin-3-yl-pyrrolo[2,1-f][1,2,4]triazin-2-yl)-amine]: the IC50 was 100 to 1000 nM on ALK (ALK Kinase Inhibition) and under 100 nM on JAK2 (JAK2 Kinase Inhibition).

As to `COc1ccc(CN2CCN(C)CC2)cc1Nc1ncc2ccc(-c3ccccc3N(C)S(C)(=O)=O)n2n1` [Example 497, N-(2-{2-[2-Methoxy-5-(4-methyl-piperazin-1-ylmethyl)-phenylamino]-pyrrolo[2,1-f][1,2,4]triazin-7-yl}-phenyl)-N-methyl-methanesulfonamide], the IC50 at ALK (setting [1]) and on JAK2 (setting [2]) was 1000 to 10000 nM each time.

As for `COc1cc(C2CCN(CC(N)=O)CC2)ccc1Nc1ncc2cc(C)c(-c3ccccc3N(C)S(C)(=O)=O)n2n1` [Example 515, 2-[4-(4-{7-[2-(Methanesulfonyl-methyl-amino)-phenyl]-6-methyl-pyrrolo[2,1-f][1,2,4]triazin-2-ylamino}-3-methoxy-phenyl)-piperidin-1-yl]-acetamide], the IC50 on ALK (setting [1]) and at JAK2 (setting [2]) was 1000 to 10000 nM throughout.

Take `CN1CCN(C(=O)C2CCCN(c3ccc(Nc4ncc5ccc(-c6ccc(S(C)(=O)=O)cc6)n5n4)cc3)C2)CC1` (stereo not shown) [Example 446, (1-{4-[7-(4-Methanesulfonyl-phenyl)-pyrrolo[2,1-f][1,2,4]triazin-2-ylamino]-phenyl}-piperidin-3-yl)-(4-methyl-piperazin-1-yl)-methanone]: the IC50 was 1000 to 10000 nM on ALK (ALK Kinase Inhibition) and under 100 nM on JAK2 (JAK2 Kinase Inhibition).

As for `Clc1cccc(-c2ccc3cnc(Nc4ccc5ncccc5c4)nn23)c1` [Example 177, [7-(3-Chloro-phenyl)-pyrrolo[2,1-f][1,2,4]triazin-2-yl]-quinolin-6-yl-amine], the IC50 on ALK (ALK Kinase Inhibition) is 100 to 1000 nM; on JAK2 (JAK2 Kinase Inhibition), under 100 nM.

In the case of `C=Cc1cc(-c2ccccc2OC)n2nc(Nc3ccc(N4CCN(C)CC4)cc3)ncc12` [Example 103, [7-(2-Methoxy-phenyl)-5-vinyl-pyrrolo[2,1-f][1,2,4]triazin-2-yl]-[4-(4-methyl-piperazin-1-yl)-phenyl]-amine], the IC50 was 100 to 1000 nM on ALK (ALK Kinase Inhibition) and under 100 nM at JAK2 (JAK2 Kinase Inhibition).

Take `COc1ccc(Cl)cc1-c1ccc2cnc(Nc3ccc(N4CCN(C)CC4)cc3)nn12` [Example 17, [7-(5-Chloro-2-methoxy-phenyl)-pyrrolo[2,1-f][1,2,4]triazin-2-yl]-[4-(4-methyl-piperazin-1-yl)-phenyl]-amine]: the IC50 on ALK (ALK Kinase Inhibition) and at JAK2 (JAK2 Kinase Inhibition) was under 100 nM each time.

For the molecule `CN(c1ccccc1-c1ccc2cnc(Nc3nccs3)nn12)S(C)(=O)=O` [Example 1362, N-Methyl-N-{2-[2-(thiazol-2-ylamino)-pyrrolo[2,1-f][1,2,4]triazin-7-yl]-phenyl}-methanesulfonamide], the IC50 on ALK (setting [1]) is 1000 to 10000 nM; at JAK2 (setting [2]) it was 100 to 1000 nM.

Turning to `COc1cc(C2CCNCC2)ccc1Nc1ncc2ccc(-c3ccccc3N(C)S(C)(=O)=O)n2n1` [Example 819, N-{2-[2-(2-Methoxy-4-piperidin-4-yl-phenylamino)-pyrrolo[2,1-f][1,2,4]triazin-7-yl]-phenyl}-N-methyl-methanesulfonamide], the IC50 on ALK (setting [1]) is under 100 nM; at JAK2 (setting [2]) it was 1000 to 10000 nM.
